Test results published in article PMC6832920, “Synthesis, Docking Studies, and In Vitro Evaluation of Some Novel Thienopyridines and Fused Thienopyridine–Quinolines as Antibacterial Agents and DNA Gyrase Inhibitors” (Molecules, 2019).
Values after ≈ are worked out from the molar mass of the structure shown.

How the values were obtained:
[1] = test system: Salmonella typhimurium 14028; assay: MIC determination by dilution procedure; format: cell-based; details: Salmonella enterica; S. typhimurium 14028; dilutions 125-1.95 μg/mL; read-out: minimum inhibitory concentration (MIC)
Protocol: (§1) The clinical control strains of Gram-negative bacteria (Escherichia coli 8739, Salmonella typhimurium 14028, Pseudomonas aeruginosa 27853) and Gram-positive bacteria (Bacillus subtilis 6633, Bacillus cereus 33018, Staphylococcus aureus 25923), were obtained from microbial inoculums by subculturing microorganisms into nutrient broth (NB) at 37 °C for 18 h, and were adjusted to 0.125 A° at 625 nm (equivalent to a McFarland 0.5) in 2-fold NB. A 100 μL measure of NB containing each test microorganism was added to the sterile Petri dishes. Antibacterial testing was carried out on all compounds (3a,b–14) using the agar disc-diffusion method [40]. Sterile nutrients were inoculated with 100 μL cell suspension of the chosen test microorganism and poured into Petri dishes (20 cm diameter). Filter paper discs (Whatman, No.3, diameter 5 mm) were loaded with 10 μL containing 100 μg of the tested compounds, as well as the standard drug. Composite compound disks were placed on the surface of inoculated agar plates and kept at low temperatures before incubation in order to support the swelling and diffusion of the microbial growth. The plates were incubated at 37 °C in the incubator. Experiments were performed in duplicate and the diameters of inhibition zones were measured after 24 h.

[2] = test system: Pseudomonas aeruginosa 27853; assay: MIC determination by dilution procedure; format: cell-based; details: dilutions 125-1.95 μg/mL; for MIC: Pseudomonas aeruginosa, 27853, P. aeruginosa 27853, read-out: minimum inhibitory concentration (MIC)
Bacillus cereus 33018 [3] = assay: agar disc-diffusion antibacterial assay; format: cell-based; details: B. cereus 33018, disc loaded with 100 μg, 37 °C, 24 h, read-out: diameter of inhibition zone
Protocol: (§2) A 100 μL measure of NB containing each test microorganism was added to the sterile Petri dishes. Antibacterial testing was carried out on all compounds (3a,b–14) using the agar disc-diffusion method [40]. Sterile nutrients were inoculated with 100 μL cell suspension of the chosen test microorganism and poured into Petri dishes (20 cm diameter). Filter paper discs (Whatman, No.3, diameter 5 mm) were loaded with 10 μL containing 100 μg of the tested compounds, as well as the standard drug. Composite compound disks were placed on the surface of inoculated agar plates and kept at low temperatures before incubation in order to support the swelling and diffusion of the microbial growth. The plates were incubated at 37 °C in the incubator. Experiments were performed in duplicate and the diameters of inhibition zones were measured after 24 h. A diameter of inhibition zone (DIZ) assay was performed to evaluate the antimicrobial potential of the compounds against the tested organisms compared with reference antibiotics.

[4] = test system: Staphylococcus aureus 25923; assay: MIC determination by dilution procedure; format: cell-based; details: dilutions 125-1.95 μg/mL; for MIC: Staphylococcus aureus, 25923, S. aureus 25923, read-out: minimum inhibitory concentration (MIC)
Protocol: as §2

Bacillus subtilis 6633 [5] = assay: MIC determination by dilution procedure; format: cell-based; details: B. subtilis 6633, dilutions 125-1.95 μg/mL, read-out: minimum inhibitory concentration (MIC)
Protocol: as §2

Bacillus cereus 33018 [6] = assay: MIC determination by dilution procedure; format: cell-based; details: B. cereus 33018, dilutions 125-1.95 μg/mL, read-out: minimum inhibitory concentration (MIC)
Protocol: as §2

Escherichia coli 8739 [7] = assay: MIC determination by dilution procedure; format: cell-based; details: E. coli 8739, dilutions 125-1.95 μg/mL, read-out: minimum inhibitory concentration (MIC)
Bacillus subtilis 6633 [8] = assay: agar disc-diffusion antibacterial assay; format: cell-based; details: B. subtilis 6633, disc loaded with 100 μg, 37 °C, 24 h, read-out: diameter of inhibition zone
Protocol: as §2

[9] = test system: Pseudomonas aeruginosa 27853; assay: agar disc-diffusion antibacterial assay; format: cell-based; details: P. aeruginosa 27853, disc loaded with 100 μg, 37 °C, 24 h, read-out: diameter of inhibition zone
Protocol: (§3) The clinical control strains of Gram-negative bacteria (Escherichia coli 8739, Salmonella typhimurium 14028, Pseudomonas aeruginosa 27853) and Gram-positive bacteria (Bacillus subtilis 6633, Bacillus cereus 33018, Staphylococcus aureus 25923), were obtained from microbial inoculums by subculturing microorganisms into nutrient broth (NB) at 37 °C for 18 h, and were adjusted to 0.125 A° at 625 nm (equivalent to a McFarland 0.5) in 2-fold NB. A 100 μL measure of NB containing each test microorganism was added to the sterile Petri dishes. Antibacterial testing was carried out on all compounds (3a,b–14) using the agar disc-diffusion method [40]. Sterile nutrients were inoculated with 100 μL cell suspension of the chosen test microorganism and poured into Petri dishes (20 cm diameter). Filter paper discs (Whatman, No.3, diameter 5 mm) were loaded with 10 μL containing 100 μg of the tested compounds, as well as the standard drug. Composite compound disks were placed on the surface of inoculated agar plates and kept at low temperatures before incubation in order to support the swelling and diffusion of the microbial growth. The plates were incubated at 37 °C in the incubator. Experiments were performed in duplicate and the diameters of inhibition zones were measured after 24 h. A diameter of inhibition zone (DIZ) assay was performed to evaluate the antimicrobial potential of the compounds against the tested organisms compared with reference antibiotics.

[10] = test system: Staphylococcus aureus 25923; assay: agar disc-diffusion antibacterial assay; format: cell-based; details: S. aureus 25923, disc loaded with 100 μg, 37 °C, 24 h, read-out: diameter of inhibition zone
Protocol: as §3

[11] = test system: Salmonella typhimurium 14028; assay: agar disc-diffusion antibacterial assay; format: cell-based; details: Salmonella enterica; S. typhimurium 14028; disc loaded with 100 μg; 37 °C, 24 h; read-out: diameter of inhibition zone
Protocol: as §1

Escherichia coli 8739 [12] = assay: agar disc-diffusion antibacterial assay; format: cell-based; details: E. coli 8739, disc loaded with 100 μg, 37 °C, 24 h, read-out: diameter of inhibition zone
Protocol: as §3

Row | SMILES | MIC [1] [µg/mL] | minimum inhibitory concentration (MIC) ([2]; P. aeruginosa 27853) [µg/mL] | MIC [2] [µg/mL] | zone of inhibition at 100 µg/disc (Bacillus cereus 33018 [3]) [mm] | melting point [°C] | minimum inhibitory concentration (MIC) ([4]; S. aureus 25923) [µg/mL] | MIC [4] [µg/mL] | MIC (Bacillus subtilis 6633 [5]) [µg/mL] | MIC (Bacillus cereus 33018 [6]) [µg/mL] | MIC (Escherichia coli 8739 [7]) [µg/mL] | zone of inhibition at 100 µg/disc (Bacillus subtilis 6633 [8]) [mm] | zone of inhibition at 100 µg/disc [9] [mm] | zone of inhibition at 100 µg/disc [10] [mm] | zone of inhibition at 100 µg/disc [11] [mm] | zone of inhibition at 100 µg/disc (Escherichia coli 8739 [12]) [mm]
1 | COc1ccc(-c2cc(-c3ccco3)nc3sc4c(NC(=O)CN5CCOCC5)c5c(nc4c23)CCCC5)cc1 [Compound 9a, N-(2-(furan-2-yl)-4-(4-methoxyphenyl)-6,7,8,9-tetrahydropyrido[3′,2′:4,5]thieno[3,2-b]quinolin-10-yl)-2-morpholinoacetamide] | 15.6 (≈ 28.2 µM) | 31.25 (≈ 56.3 µM) | 15.6 (≈ 28.2 µM) | 16 | 143 | 31.25 (≈ 56.3 µM) | 15.6 (≈ 28.2 µM) | 15.6 (≈ 28.2 µM) | 15.6 (≈ 28.2 µM) | 15.6 (≈ 28.2 µM) | 14 | 11 | 12 | – | –
2 | COc1ccc(-c2cc(-c3ccco3)nc3sc4c(NS(=O)(=O)c5ccccc5)c5c(nc4c23)CCCC5)cc1 [Compound 10, N-(2-(Furan-2-yl)-4-(4-methoxyphenyl)-6,7,8,9-tetrahydropyrido[3′,2′:4,5]thieno [3,2-b]quinolin-10-yl)benzenesulfonamide] | – | – | – | 9 | 303 to 304 | – | 31.2 (≈ 55 µM) | 62.5 (≈ 110 µM) | 62.5 (≈ 110 µM) | – | 8 | – | 9 | – | –
3 | NC(=O)c1sc2nc(-c3ccco3)cc(-c3cccs3)c2c1N=C1CCCCC1 [Compound 4b, 3-(Cyclohexylideneamino)-6-(furan-2-yl)-4-(thiophen-2-yl)thieno[2,3-b]pyridine-2-carboxamide] | 15.6 (≈ 37.1 µM) | – | – | – | 320 to 322 | – | 31.2 (≈ 74.1 µM) | 31.2 (≈ 74.1 µM) | – | 31.2 (≈ 74.1 µM) | 10 | – | 12 | 15 | 12
4 | COc1ccc(-c2cc(-c3ccco3)nc3sc4c(NC(=O)Nc5ccccc5)c5c(nc4c23)CCCC5)cc1 [Compound 11, 1-(2-(Furan-2-yl)-4-(4-methoxyphenyl)-6,7,8,9-tetrahydropyrido[3′,2′:4,5]thieno [3,2-b]quinolin-10-yl)-3-phenylurea] | – | – | – | 8 | 118 to 120 | – | 62.5 (≈ 114 µM) | 31.2 (≈ 57.2 µM) | 62.5 (≈ 114 µM) | – | 9 | – | 8 | – | –
5 | COc1ccc(-c2cc(-c3ccco3)nc3sc4c(N)c5c(nc4c23)CCCC5)cc1 [Compound 5a, 2-(Furan-2-yl)-4-(4-methoxyphenyl)-6,7,8,9-tetrahydropyrido[3′,2′:4,5]thieno[3,2-b]quinolin-10-amine] | – | – | 31.2 (≈ 73.1 µM) | 13 | 231 | – | – | 31.2 (≈ 73.1 µM) | 31.2 (≈ 73.1 µM) | 31.2 (≈ 73.1 µM) | 10 | 12 | – | – | 12
6 | NNCC(=O)Nc1c2c(nc3c1sc1nc(-c4ccco4)cc(-c4cccs4)c13)CCCC2 [Compound 7b, N-(2-(furan-2-yl)-4-(thiophen-2-yl)-6,7,8,9-tetrahydropyrido[3′,2′:4,5]thieno[3,2-b]quinolin-10-yl)-2-hydrazinylacetamide] | 31.2 (≈ 65.7 µM) | – | 31.2 (≈ 65.7 µM) | 11 | 306 | – | 31.2 (≈ 65.7 µM) | 62.5 (≈ 131 µM) | 31.2 (≈ 65.7 µM) | – | 8 | 12 | 10 | 10 | –
7 | N#Cc1c(-c2cccs2)cc(-c2ccco2)nc1SCC(N)=O [Compound 2b, 2-((3-Cyano-6-(furan-2-yl)-4-(thiophen-2-yl)pyridin-2-yl)thio)acetamide] | – | – | – | – | 242 | – | – | – | – | – | – | – | – | – | –
8 | COc1ccc(-c2cc(-c3ccco3)nc3sc4c(NC(=O)CNN=Cc5ccc(C)cc5)c5c(nc4c23)CCCC5)cc1 [Compound 8b, N-(2-(furan-2-yl)-4-(4-methoxyphenyl)-6,7,8,9-tetrahydropyrido[3′,2′:4,5]thieno[3,2-b]quinolin-10-yl)-2-(2-(4-methylbenzylidene)hydrazinyl)acetamide] | – | – | – | 9 | 122 | – | 62.5 (≈ 104 µM) | 31.2 (≈ 51.9 µM) | 62.5 (≈ 104 µM) | – | 9 | – | 8 | – | –
